Results: US12692274B2, “Tetrahydroisoquinoline derivatives for the treatment of red blood disorders and inflammatory diseases” (Sanofi, priority 2020, dated 2026)
Values joined by “and” are separate entries in the source; they are usually repeats but may differ in a detail not shown here. Equal entries are not always repeated.

Tests used:
[1] = system: NQO1 activation in BEAS-2B cells; assay: BEAS-2B cellular MTT assay of NQO1 activation, 0% HSA; format: cell-based
Outline: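 For the 0% HSA condition, cells were seeded into collagen plates in HSA-free medium. Culture was BEAS-2B in BEBM plus BEGM SingleQuots lacking GA-1000, held under 70% confluence, at a seeding density reaching 95-100% confluence by 48 h.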

[2] = system: NQO1 activation in BEAS-2B cells; assay: BEAS-2B cellular MTT assay of NQO1 activation, 0.3% HSA; format: cell-based
Outline: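 MTT read-out in BEAS-2B cells grown in BEBM with SingleQuots, no GA-1000, kept below 70% confluence; plates coated with collagen, with 0.3% or 0% HSA medium, seeded to 95-100% confluency at 48 h, 37 °C, 5% CO2.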

[3] = molecular target: HIS-Keap1 full length / Biotin-Nrf2 (16-mer) (Homo sapiens, UniProt Q14145); assay: biochemical
HIS-Keap1 full length / Biotin-Nrf2 (16-mer), sequence (Q14145 whole entry): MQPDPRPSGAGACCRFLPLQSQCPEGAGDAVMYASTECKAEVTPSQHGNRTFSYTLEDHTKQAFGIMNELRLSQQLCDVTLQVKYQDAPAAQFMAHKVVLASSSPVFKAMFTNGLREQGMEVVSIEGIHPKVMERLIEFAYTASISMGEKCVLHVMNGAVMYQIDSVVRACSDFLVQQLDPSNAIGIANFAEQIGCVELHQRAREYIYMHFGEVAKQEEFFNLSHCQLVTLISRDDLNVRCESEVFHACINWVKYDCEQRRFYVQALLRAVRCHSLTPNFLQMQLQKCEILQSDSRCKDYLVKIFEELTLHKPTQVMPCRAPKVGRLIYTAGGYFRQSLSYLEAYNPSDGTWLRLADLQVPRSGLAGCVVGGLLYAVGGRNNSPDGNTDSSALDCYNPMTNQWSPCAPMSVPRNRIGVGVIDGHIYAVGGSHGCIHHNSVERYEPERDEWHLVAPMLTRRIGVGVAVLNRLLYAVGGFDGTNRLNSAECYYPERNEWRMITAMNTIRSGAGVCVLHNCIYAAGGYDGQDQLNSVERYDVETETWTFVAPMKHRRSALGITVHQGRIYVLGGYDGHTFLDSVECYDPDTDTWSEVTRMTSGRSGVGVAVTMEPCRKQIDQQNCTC

[4] = Homo sapiens, Serum Free W, read-out: BEAS EC50 (nM) Serum Free W
[5] = Homo sapiens, BEAS+ W, read-out: BEAS+ W EC50
[6] = Homo sapiens, serum free, read-out: BEAS EC50 (nM) serum free
[7] = serum free, read-out: BEAS EC50 (nM) serum free
[8] = Homo sapiens, BEAS+, read-out: BEAS+ EC50
[9] = Serum Free W, read-out: BEAS EC50 (nM) Serum Free W
[10] = BEAS+ W, read-out: BEAS+ W EC50

Row | SMILES | EC50 [1, 4] | EC50 [2, 5] | IC50 [3] | EC50 [1, 6] | EC50 [1, 7] | EC50 ([2]; BEAS+, read-out: BEAS+ EC50) | EC50 [2, 8] | EC50 [1, 9] | EC50 [2, 10]
1 | O=C(O)CC1c2cnc(nc2)OCCCCOc2ccc(cc2)C(=O)N2CCc3ccc1cc3C2 (stereo not shown) [Compound 183] | > 1000 nM | > 10000 nM | 642 nM and 571 nM |  |  |  |  |  | 
2 | O=C(O)CC1c2ccc(nc2)OCCCCOc2ccc(cc2C(F)(F)F)C(=O)N2CCc3ccc1cc3C2 (stereo not shown) [Compound 184] |  |  | 168 nM and 147 nM | 471 nM | 713 nM | 2570 nM | 2900 nM |  | 
3 | O=C(O)CC1c2ccc(nc2)OCCCCOc2cnc(cn2)C(=O)N2CCc3ccc1cc3C2 (stereo not shown) [Compound 185] |  |  | > 1000 nM | > 10000 nM |  |  | > 10000 nM |  | 
4 | Cc1nc2ncc1C(CC(=O)O)c1ccc3c(c1)CN(CC3)C(=O)c1ccc(c(Cl)c1)OCCCCO2 (stereo not shown) [Compound 186] |  |  | 527 nM and 289 nM | > 10000 nM |  |  | > 10000 nM |  | 
5 | O=C(O)CC1c2ccc(nc2)OCCCCCc2cc(F)c(c(F)c2)C(=O)N2CCc3ccc1cc3C2 (stereo not shown) [Compound 187] |  |  | 5.9 nM and 5.6 nM | 9.3 nM | 8.9 nM | 19.1 nM | 22 nM |  | 
6 | COc1cc2ccc1CCCCCCn1nnc3c(C)c(ccc31)C(CC(=O)O)c1ccc3c(c1)CN(CC3)C2=O (stereo not shown) [Compound 189] |  |  | 22.8 nM and 23.3 nM | 4.4 nM | 6 nM | 15.9 nM | 18.8 nM |  | 
7 | COc1cc2ccc1C(=O)N1CCc3ccc(cc3C1)C(CC(=O)O)c1ccc3c(nnn3CCCCC2)c1C (stereo not shown) [Compound 191] |  |  | 19.5 nM and 20.4 nM | 11.4 nM | 18 nM | 18 nM | 20.5 nM |  | 
8 | Cc1c2ccc3c1nnn3CCCCCCc1ccc3nc(n(C)c3c1)C(=O)N1CCc3ccc(cc3C1)C2CC(=O)O (stereo not shown) [Compound 192] |  |  | 7 nM and 6.8 nM | 75.6 nM | 63.7 nM | 124 nM | 114 nM |  | 
9 | O=C(O)CC1c2ccc(nc2)OCCCCCc2cnc(c(F)c2)C(=O)N2CCc3ccc1cc3C2 (stereo not shown) [Compound 194] |  |  | 24.3 nM and 22.9 nM | 870 nM | 1100 nM | 829 nM | 1080 nM |  | 
10 | Cc1cc2ccc1C(=O)N1CCc3ccc(cc3C1)C(CC(=O)O)c1cnc(nc1C)OCCCCO2 (stereo not shown) [Compound 195] |  |  | 62.3 nM and 69.9 nM | 5570 nM | > 10000 nM |  | > 10000 nM |  | 
11 | O=C(O)CC1c2ccc(nc2)OCCCCCc2cnc(nc2)C(=O)N2CCc3ccc1cc3C2 (stereo not shown) [Compound 196] |  |  | 130 nM and 116 nM | > 10000 nM |  |  | > 10000 nM |  | 
12 | Cc1c2ccc3c1nnn3CCCCCCc1ccc(cc1)C(=O)N1CCc3ccc(cc3C1)[C@H]2CC(=O)O [Compound 202] |  |  | 7.2 nM and 6.8 nM and 7.1 nM | 58.2 nM | 55.5 nM and 69.1 nM | 298 nM and 338 nM | 200 nM |  | 
13 | Cc1c2ccc3c1nnn3CCCCCc1ccc3c(c1)nc(n3C)C(=O)N1CCc3ccc(cc3C1)C2CC(=O)O (stereo not shown) [Compound 205] |  |  | 2.7 nM and 3 nM | 318 nM | 329 nM | 507 nM | 372 nM |  | 
14 | Cc1c2ccc3c1nnn3CCCCCCc1ccc3c(c1)nc(n3C)C(=O)N1CCc3ccc(cc3C1)C2CC(=O)O (stereo not shown) [Compound 206] |  |  | 5.3 nM and 5.7 nM | 64 nM | 38.5 nM | 119 nM | 89.9 nM |  | 
15 | Cc1c2cnc3c1nnn3CCCCCCOc1cc(F)c(c(F)c1)C(=O)N1CCc3ccc(cc3C1)[C@@H]2CC(=O)O [Compound 207] | 23.7 nM | 65.4 nM | 1.4 nM |  |  |  |  | 32.1 nM | 57.6 nM
16 | Cc1c2cnc3c1nnn3CCCCCCOc1cc(F)c(c(F)c1)C(=O)N1CCc3ccc(cc3C1)[C@H]2CC(=O)O [Compound 208] | 10.1 nM | 25.1 nM | 1.1 nM |  |  |  |  | 14.9 nM | 27.2 nM
17 | Cc1cc2ccc1C(=O)N1CCc3ccc(cc3C1)C(CC(=O)O)c1ccc(nc1)OCCCCO2 (stereo not shown) [Compound 209] |  |  | 0.4 nM and 0.5 nM | 469 nM | 494 nM | 903 nM | 843 nM |  | 
18 | O=C(O)CC1c2ccc(nc2)OCCCCOc2cc(F)c(c(F)c2)C(=O)N2CCc3ccc1cc3C2 (stereo not shown) [Compound 210] |  |  | 3.7 nM and 4 nM | 482 nM | 475 nM | 845 nM | 1020 nM |  | 
19 | O=C(O)CC1c2ccc(nc2)OCCCCOc2ccc(cc2Cl)C(=O)N2CCc3ccc1cc3C2 (stereo not shown) [Compound 212] |  |  | 7.7 nM and 5.7 nM | 190 nM | 254 nM | 811 nM | 606 nM |  | 
20 | O=C(O)CC1c2ccc3c(c2)CN(CC3)C(=O)c2ncc(cc2F)OCCCCCCn2nnc3c(Cl)c1ccc32 (stereo not shown) [Compound 213] |  |  | 1.5 nM and 1.6 nM | 118 nM | 98.4 nM | 126 nM | 147 nM |  | 

Row | SMILES | EC50 [1, 4] | EC50 [2, 5] | IC50 [3] | EC50 [1, 6] | EC50 [1, 7] | EC50 ([2]; BEAS+, read-out: BEAS+ EC50) | EC50 [2, 8] | EC50 [1, 9] | EC50 [2, 10]
21 | O=C(O)CC1c2ccc3c(c2)CN(CC3)C(=O)c2ccc(cn2)OCCCCCCn2nnc3c(Cl)c1ccc32 (stereo not shown) [Compound 214] |  |  | 2.3 nM and 2.1 nM | 245 nM | 132 nM | 241 nM | 234 nM |  | 
22 | O=C(O)CC1c2ccc3c(c2)CN(CC3)C(=O)c2ncc(cc2F)CCCCCn2nnc3c(Cl)c1ccc32 (stereo not shown) [Compound 215] |  |  | 1 nM and 1.1 nM | 243 nM | 251 nM | 310 nM | 349 nM |  | 
23 | Cc1c2cnc3c1nnn3CCCCCCc1ccc(cc1)C(=O)N1CCc3ccc(cc3C1)C2CC(=O)O (stereo not shown) [Compound 216] |  |  | 2.1 nM and 2.3 nM | 1.8 nM | 2.5 nM | 28.2 nM | 35.8 nM |  | 
24 | Cc1c2ccc3c1nnn3CCCCCCOc1cnc(c(F)c1)C(=O)N1CCc3ccc(cc3C1)C2CC(=O)O (stereo not shown) [Compound 217] |  |  | 1.9 nM and 2.1 nM | 371 nM | 360 nM | 301 nM | 429 nM |  | 
25 | Cc1cc2ccc1C(=O)N1CCc3ccc(cc3C1)C(CC(=O)O)c1cnc3c(nnn3CCCCCCO2)c1C (stereo not shown) [Compound 218] |  |  | 0.8 nM | 27.5 nM | 39.7 nM | 37.5 nM | 29.3 nM |  | 
26 | Cc1c2ccc3c1nnn3CCCCCc1cnc(c(F)c1)C(=O)N1CCc3ccc(cc3C1)C2CC(=O)O (stereo not shown) [Compound 219] |  |  | 1.3 nM and 1.5 nM | 180 nM | 208 nM | 208 nM | 228 nM |  | 
27 | O=C(O)CC1c2ccc3c(c2)CN(CC3)C(=O)c2ccc(cn2)CCCCCn2nnc3c(Cl)c1ccc32 (stereo not shown) [Compound 220] |  |  | 1.4 nM and 1.2 nM | 178 nM | 182 nM | 346 nM | 314 nM |  | 
28 | Cc1c2cnc3c1nnn3CCCCCCOc1ccc(c(F)c1)C(=O)N1CCc3ccc(cc3C1)C2CC(=O)O (stereo not shown) [Compound 222] |  |  | 1.6 nM and 1.5 nM | 17.2 nM | 14.2 nM | 38.6 nM | 47.4 nM |  | 
29 | O=C(O)CC1c2ccc3c(c2)CN(CC3)C(=O)c2ncc(cc2F)CCCCCCn2nnc3c(Cl)c1ccc32 (stereo not shown) [Compound 224] |  |  | 2.1 nM and 2 nM | 400 nM | 296 nM | 314 nM | 320 nM |  | 
30 | O=C(O)CC1c2ccc3c(c2)CN(CC3)C(=O)c2ccc(cn2)CCCCCCn2nnc3c(Cl)c1ccc32 (stereo not shown) [Compound 225] |  |  | 2.5 nM and 2.4 nM | 169 nM | 175 nM | 339 nM | 303 nM |  | 
31 | O=C(O)CC1c2cnc(nc2)OCCCCc2ccc(c(Cl)c2)C(=O)N2CCc3ccc1cc3C2 (stereo not shown) [Compound 226] |  |  | 245 nM | > 10000 nM |  |  | > 10000 nM |  | 
32 | Cc1c2ccc3c1nnn3CCCCCCOc1ccc(nc1)C(=O)N1CCc3ccc(cc3C1)C2CC(=O)O (stereo not shown) [Compound 227] |  |  | 2.1 nM | 517 nM | 568 nM | 932 nM | 1130 nM |  | 
33 | Cc1c2ccc3c1nnn3CCCCCc1ccc(nc1)C(=O)N1CCc3ccc(cc3C1)C2CC(=O)O (stereo not shown) [Compound 228] |  |  | 1.3 nM | 524 nM | 471 nM | 667 nM | 771 nM |  | 
34 | Cc1c2ccc3c1nnn3CCCCCCc1ccc(nc1)C(=O)N1CCc3ccc(cc3C1)C2CC(=O)O (stereo not shown) [Compound 230] |  |  | 4.8 nM | 384 nM | 471 nM | 961 nM | 1090 nM |  | 
35 | C[C@H](C(=O)O)[C@@H]1c2ccc3c(c2)CN(CC3)C(=O)c2ccc(cc2)OCCCCCn2nnc3cc1ccc32 [Compound 231] |  |  | 3.2 nM | 153 nM | 228 nM | 227 nM | 273 nM |  | 
36 | C[C@@H](C(=O)O)[C@H]1c2ccc3c(c2)CN(CC3)C(=O)c2ccc(cc2)OCCCCCn2nnc3cc1ccc32 [Compound 232] |  |  | 1.4 nM | 7.2 nM | 4.6 nM | 8.3 nM | 9 nM |  | 
37 | C[C@H](C(=O)O)[C@H]1c2ccc3c(c2)CN(CC3)C(=O)c2ccc(cc2)OCCCCCn2nnc3cc1ccc32 [Compound 234] |  |  | 49.1 nM | 1840 nM | 1410 nM | 5840 nM | 3860 nM |  | 
38 | CC(C)(C(=O)O)[C@@H]1c2ccc3c(c2)CN(CC3)C(=O)c2c(F)cc(cc2F)OCCCCCCn2nnc3cc1ccc32 [Compound 236] |  |  | 51 nM and 44.4 nM and 44.6 nM | 62.7 nM | 50.3 nM and 82.1 nM and 84.7 nM | 248 nM and 220 nM and 190 nM | 286 nM |  | 
39 | O=C(O)CC1c2cnc(nc2)OCCCCCc2ccc(c(F)c2)C(=O)N2CCc3ccc1cc3C2 (stereo not shown) [Compound 238] |  |  | 6.2 nM | 571 nM | 377 nM | 603 nM | 572 nM |  | 
